Measurements as given in patent publication US9428508B2, “2,4-diamino-6,7-dihydro-5H-pyrrolo[2,3]pyrimidine derivatives as FAK/Pyk2 inhibitors” (Centaurus BioPharma Co., Ltd., priority 2011, dated 2016).

Tests used:
[1] = target: PYK2 (Homo sapiens (Human), UniProt Q14289); experiment: Biochemical assay for PYK2 activity (LANCE TR-FRET, ULight-poly Glu,Ala,Tyr substrate); conditions: GST-tagged PYK2, 40 min reaction
Protocol: (§1) Biochemical Assay for FAK/Pyk2 Activity
(§2) GST-tagged FAK was purchased from Invitrogen (PV3832). GST-tagged PYK2 was purchased from Invitrogen (PV4567). The activity of FAK/PYK2 was measured by monitoring the phosphorylation of a fluorophore labeled ULight-poly Glu, Ala, Tyr (1:1:1) peptide substrate from Perkin Elmer (TRF0101) in the presence of ATP. The phosphorylated tyrosine residue was recognized by a LANCE Europium chelate labeled anti-phosphotyrosine (PY20) antibody from Perkin Elmer (AD0066). This brought the fluorophore and europium chelate in close proximity ([…]) that upon excitation at 320 nm by an Envision (PerkinElmer), energy can be transferred from the donor Europium chelate to the acceptor fluorophore. […] The strength of the signal was, therefore, directly proportional to the FAK/PYK2 activity.
(§3) To measure inhibitory activity of FAK/PYK2 inhibitors, compounds were first prepare as a 1 mM stock in 100% DMSO and 3-fold serial dilution was performed in a 96-well plate (Corning, 3897) to generate 12 different concentration of 100× stock. A 5 μl of 100× stock of each concentration was added to wells containing 95 μl of 1× reaction buffer (40 mM Tris, pH7.5, […], 1 mM DTT and 1 mM CHAPS) to generate 5× stock. Then 2 μl of 5× stock of each concentration was added to a 384 wells-OptiPlate (PerkinElmer, 6007299).
(§4) For PYK2, 5 μl of 2 nM PYK2 and 1.5 μl of 666 nM ULight-poly Glu, Ala, Tyr (1:1:1) peptide substrate, prepared in above reaction buffer, were added to each well. The reaction was initiated by adding 1.5 μl of 46.6 μM ATP. The reaction was allowed to proceed for 40 min before being quenched with 5 μl of 40 mM EDTA stop buffer prepared in 1×LANCE detection buffer (PerkinElmer, CR97-100).
(§5) Upon quenching of the reaction, 5 μl of 8 nM anti-phosphotyrosine antibody was added to each well and incubated for 60 minutes. The plate was measured using an Envision (PerkinElmer) based on the theory mentioned above.

[2] = target: FAK (Homo sapiens (Human), UniProt Q05397); experiment: Biochemical assay for FAK activity (LANCE TR-FRET, ULight-poly Glu,Ala,Tyr substrate); conditions: GST-tagged FAK, 120 min reaction
Protocol: as §1, §2, §3
as §4, with “For FAK, 4” for “For PYK2, 5”, “of 2.5” for “of 2”, “nM FAK, 1 ul of 8 μg/μl BSA” for “nM PYK2”, “of 33.3” for “of 46.6”, “for 120” for “for 40”
as §5

FAK, sequence (Q05397 whole entry): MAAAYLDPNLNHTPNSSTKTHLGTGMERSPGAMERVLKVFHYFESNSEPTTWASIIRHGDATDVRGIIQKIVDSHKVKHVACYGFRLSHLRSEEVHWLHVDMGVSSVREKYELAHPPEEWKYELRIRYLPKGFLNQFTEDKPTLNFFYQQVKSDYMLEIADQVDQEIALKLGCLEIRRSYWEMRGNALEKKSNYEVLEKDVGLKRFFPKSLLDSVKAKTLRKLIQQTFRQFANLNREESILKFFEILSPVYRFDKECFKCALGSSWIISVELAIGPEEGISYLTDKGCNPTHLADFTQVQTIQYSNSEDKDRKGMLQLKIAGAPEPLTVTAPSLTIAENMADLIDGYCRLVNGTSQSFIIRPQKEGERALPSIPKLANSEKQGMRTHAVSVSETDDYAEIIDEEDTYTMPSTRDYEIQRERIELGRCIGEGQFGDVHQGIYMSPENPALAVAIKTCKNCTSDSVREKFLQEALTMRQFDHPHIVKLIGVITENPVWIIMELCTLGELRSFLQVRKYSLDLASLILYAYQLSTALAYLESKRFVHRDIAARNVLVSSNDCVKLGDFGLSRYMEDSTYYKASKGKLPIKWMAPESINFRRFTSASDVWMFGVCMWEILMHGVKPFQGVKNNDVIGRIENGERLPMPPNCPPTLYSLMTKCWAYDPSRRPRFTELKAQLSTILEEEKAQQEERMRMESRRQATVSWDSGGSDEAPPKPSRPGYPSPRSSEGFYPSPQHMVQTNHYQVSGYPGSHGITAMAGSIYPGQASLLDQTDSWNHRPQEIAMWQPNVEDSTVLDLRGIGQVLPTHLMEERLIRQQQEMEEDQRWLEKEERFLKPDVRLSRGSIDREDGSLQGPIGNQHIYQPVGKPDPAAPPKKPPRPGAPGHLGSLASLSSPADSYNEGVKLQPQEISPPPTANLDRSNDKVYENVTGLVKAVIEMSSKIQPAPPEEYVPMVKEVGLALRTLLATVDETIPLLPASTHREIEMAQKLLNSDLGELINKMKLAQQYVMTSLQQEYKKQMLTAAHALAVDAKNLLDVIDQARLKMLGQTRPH
PYK2, sequence (Q14289 whole entry): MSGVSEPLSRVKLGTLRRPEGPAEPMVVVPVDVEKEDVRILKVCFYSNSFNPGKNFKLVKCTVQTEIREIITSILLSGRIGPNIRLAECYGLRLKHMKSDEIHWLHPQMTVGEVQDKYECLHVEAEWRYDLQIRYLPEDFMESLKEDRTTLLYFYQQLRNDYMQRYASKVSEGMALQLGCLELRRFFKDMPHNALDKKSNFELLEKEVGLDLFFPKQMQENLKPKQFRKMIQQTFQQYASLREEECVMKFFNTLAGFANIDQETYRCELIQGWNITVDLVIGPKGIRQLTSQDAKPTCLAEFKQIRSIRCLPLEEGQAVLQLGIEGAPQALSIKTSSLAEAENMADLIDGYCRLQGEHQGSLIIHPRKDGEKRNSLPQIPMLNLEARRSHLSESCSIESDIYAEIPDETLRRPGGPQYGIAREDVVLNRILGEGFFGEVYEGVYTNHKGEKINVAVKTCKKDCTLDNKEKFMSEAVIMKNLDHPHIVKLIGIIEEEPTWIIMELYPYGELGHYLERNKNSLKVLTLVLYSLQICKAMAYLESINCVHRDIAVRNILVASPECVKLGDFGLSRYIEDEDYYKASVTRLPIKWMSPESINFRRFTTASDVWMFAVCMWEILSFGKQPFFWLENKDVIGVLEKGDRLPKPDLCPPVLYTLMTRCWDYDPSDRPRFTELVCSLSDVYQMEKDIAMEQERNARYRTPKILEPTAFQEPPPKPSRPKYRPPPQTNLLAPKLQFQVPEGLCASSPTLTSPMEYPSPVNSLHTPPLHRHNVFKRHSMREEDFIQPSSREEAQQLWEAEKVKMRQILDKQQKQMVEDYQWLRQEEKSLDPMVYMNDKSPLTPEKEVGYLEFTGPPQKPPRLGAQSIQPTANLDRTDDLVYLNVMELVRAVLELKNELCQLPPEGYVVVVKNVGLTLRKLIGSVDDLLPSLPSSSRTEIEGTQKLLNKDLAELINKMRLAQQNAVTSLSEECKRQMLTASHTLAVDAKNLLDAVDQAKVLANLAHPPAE

With COc1cc(N2CCOCC2)ccc1Nc1nc2c(c(Nc3cccc(C)n3)n1)CCN2 [Example 12, N^2-(2-methoxy-4-morpholinophenyl)-N^4-(6-methylpyridin-2-yl)-6,7-dihydro-5H-pyrrolo[2,3-d]pyrimidine-2,4-diamine] the IC50 [1] was < 100 nM and the IC50 [2] was < 100 nM.

With CNC(=O)c1ccccc1Nc1nc(Nc2ccc(N3CCOCC3)cc2CO)nc2c1CCN2 [Example 14, 2-(2-(2-(hydroxymethyl)-4-morpholinophenylamino)-6,7-dihydro-5H-pyrrolo[2,3-d]pyrimidin-4-ylamino)-N-methylbenzamide] the IC50 [1] was > 1000 nM and the IC50 [2] was > 1000 nM.

In the case of CNC(=O)c1ccccc1Nc1nc(Nc2cccc3c2OCCO3)nc2c1CCN2 [Example 15, 2-(2-(2,3-dihydrobenzo[b][1,4]dioxin-5-ylamino)-6,7-dihydro-5H-pyrrolo[2,3-d]pyrimidin-4-ylamino)-N-methylbenzamide], the IC50 [1] is reported as < 500 nM and the IC50 [2] is reported as < 500 nM.

In the case of CNC(=O)c1ccccc1Nc1nc(Nc2ccc(N3CCOCC3)c3c2OCCO3)nc2c1CCN2 [Example 16, N-methyl-2-(2-(8-morpholino-2,3-dihydrobenzo[b][1,4]dioxin-5-ylamino)-6,7-dihydro-5H-pyrrolo[2,3-d]pyrimidin-4-ylamino)benzamide], the IC50 [1] is reported as < 200 nM and the IC50 [2] is reported as < 500 nM.

With CCN1C(=O)CCCc2c1ccc(Nc1nc3c(c(Nc4ccccc4C(=O)NC)n1)CCN3)c2OC [Example 17, 2-(2-(1-ethyl-6-methoxy-2-oxo-2,3,4,5-tetrahydro-1H-benzo[b]azepin-7-ylamino)-6,7-dihydro-5H-pyrrolo[2,3-d]pyrimidin-4-ylamino)-N-methylbenzamide] the IC50 [1] was < 200 nM and the IC50 [2] was < 1000 nM.

With CNC(=O)c1ccccc1Nc1nc(Nc2cccc3ccoc23)nc2c1CCN2 [Example 19, 2-(2-(benzofuran-7-ylamino)-6,7-dihydro-5H-pyrrolo[2,3-d]pyrimidin-4-ylamino)-N-methylbenzamide] the IC50 [1] was < 100 nM and the IC50 [2] was < 200 nM.

For CNC(=O)c1ccccc1Nc1nc(Nc2cc(C)nn2C)nc2c1CCN2 [Example 20, 2-(2-(1,3-dimethyl-1H-pyrazol-5-ylamino)-6,7-dihydro-5H-pyrrolo[2,3-d]pyrimidin-4-ylamino)-N-methylbenzamide], the IC50 [1] was < 500 nM and the IC50 [2] was < 1000 nM.

CNC(=O)c1ccccc1Nc1nc(Nc2cc(OC)c(OC)c(OC)c2)nc2c1CCN2 [Example 21, N-methyl-2-(2-(3,4,5-trimethoxyphenylamino)-6,7-dihydro-5H-pyrrolo[2,3-d]pyrimidin-4-ylamino)benzamide] was tested, and the IC50 [1] was < 300 nM and the IC50 [2] was < 1000 nM.

In the case of CNC(=O)c1ccccc1Nc1nc(Nc2cccc3c2ccn3CCCN2CCOCC2)nc2c1CCN2 [Example 22, N-methyl-2-(2-(1-(3-morpholinopropyl)-1H-indol-4-ylamino)-6,7-dihydro-5H-pyrrolo[2,3-d]pyrimidin-4-ylamino)benzamide], the IC50 [1] is reported as < 200 nM and the IC50 [2] is reported as < 100 nM.

In the case of CNC(=O)c1ccccc1Nc1nc(Nc2ccc(N3CCOCC3)cc2OC)nc2c1[C@H](C)CN2 [Example 35, (S)-2-(2-(2-methoxy-4-morpholinophenylamino)-5-methyl-6,7-dihydro-5H-pyrrolo[2,3-d]pyrimidin-4-ylamino)-N-methylbenzamide], the IC50 [1] is reported as < 20 nM and the IC50 [2] is reported as < 20 nM.

In the case of COc1cc(N2CCOCC2)ccc1Nc1nc2c(c(Nc3ccccc3S(=O)(=O)NC3CCC3)n1)[C@H](C)CN2 [Example 36, (S)—N-cyclobutyl-2-(2-(2-methoxy-4-morpholinophenylamino)-5-methyl-6,7-dihydro-5H-pyrrolo[2,3-d]pyrimidin-4-ylamino)benzenesulfonamide], the IC50 [1] is reported as < 20 nM and the IC50 [2] is reported as < 20 nM.

With CNC(=O)c1ccccc1Nc1nc(Nc2ccc(N3CCOCC3)cc2OC)nc2c1C(C)(C)CN2 [Example 37, 2-(2-(2-methoxy-4-morpholinophenylamino)-5,5-dimethyl-6,7-dihydro-5H-pyrrolo[2,3-d]pyrimidin-4-ylamino)-N-methylbenzamide] the IC50 [1] was < 20 nM and the IC50 [2] was < 20 nM.

With COc1cc(N2CCOCC2)ccc1Nc1nc2c(c(Nc3ccccc3S(=O)(=O)N(C)C)n1)CCN2 [Example 38, 2-(2-(2-methoxy-4-morpholinophenylamino)-6,7-dihydro-5H-pyrrolo[2,3-d]pyrimidin-4-ylamino)-N,N-dimethylbenzenesulfonamide] the IC50 [1] was < 200 nM and the IC50 [2] was < 50 nM.

CCCCNS(=O)(=O)c1ccccc1Nc1nc(Nc2ccc(N3CCOCC3)cc2OC)nc2c1CCN2 [Example 39, N-butyl-2-(2-(2-methoxy-4-morpholinophenylamino)-6,7-dihydro-5H-pyrrolo[2,3-d]pyrimidin-4-ylamino)benzenesulfonamide] was tested, and the IC50 [1] was < 100 nM and the IC50 [2] was < 50 nM.

In the case of COc1cc(N2CCOCC2)ccc1Nc1nc2c(c(Nc3ccccc3S(=O)(=O)NC(C)C)n1)CCN2 [Example 40, N-isopropyl-2-(2-(2-methoxy-4-morpholinophenylamino)-6,7-dihydro-5H-pyrrolo[2,3-d]pyrimidin-4-ylamino)benzenesulfonamide], the IC50 [1] is reported as < 20 nM and the IC50 [2] is reported as < 20 nM.

With COc1cc(N2CCOCC2)ccc1Nc1nc2c(c(Nc3ccccc3S(N)(=O)=O)n1)CCN2 [Example 41, 2-(2-(2-methoxy-4-morpholinophenylamino)-6,7-dihydro-5H-pyrrolo[2,3-d]pyrimidin-4-ylamino)benzenesulfonamide] the IC50 [1] was < 200 nM and the IC50 [2] was < 50 nM.

In the case of COc1cc(N2CCOCC2)ccc1Nc1nc2c(c(Nc3ccccc3S(=O)(=O)NC3CC3)n1)CCN2 [Example 42, N-cyclopropyl-2-(2-(2-methoxy-4-morpholinophenylamino)-6,7-dihydro-5H-pyrrolo[2,3-d]pyrimidin-4-ylamino)benzenesulfonamide], the IC50 [1] is reported as < 50 nM and the IC50 [2] is reported as < 20 nM.

CCNS(=O)(=O)c1ccccc1Nc1nc(Nc2ccc(N3CCOCC3)cc2OC)nc2c1CCN2 [Example 43, N-ethyl-2-(2-(2-methoxy-4-morpholinophenylamino)-6,7-dihydro-5H-pyrrolo[2,3-d]pyrimidin-4-ylamino)benzenesulfonamide] was tested, and the IC50 [1] was < 20 nM and the IC50 [2] was < 100 nM.

CCC(C)NS(=O)(=O)c1ccccc1Nc1nc(Nc2ccc(N3CCOCC3)cc2OC)nc2c1CCN2 (centres unmarked) [Example 44, N-sec-butyl-2-(2-(2-methoxy-4-morpholinophenylamino)-6,7-dihydro-5H-pyrrolo[2,3-d]pyrimidin-4-ylamino)benzenesulfonamide] was tested, and the IC50 [1] was < 20 nM and the IC50 [2] was < 20 nM.

COc1cc(N2CCOCC2)ccc1Nc1nc2c(c(Nc3ccccc3S(=O)(=O)NCC(C)C)n1)CCN2 [Example 45, N-isobutyl-2-(2-(2-methoxy-4-morpholinophenylamino)-6,7-dihydro-5H-pyrrolo[2,3-d]pyrimidin-4-ylamino)benzenesulfonamide] was tested, and the IC50 [1] was < 100 nM and the IC50 [2] was < 100 nM.

For COc1cc(N2CCOCC2)ccc1Nc1nc2c(c(Nc3ccccc3S(=O)(=O)NC(C)(C)C)n1)CCN2 [Example 47, N-tert-butyl-2-(2-(2-methoxy-4-morpholinophenylamino)-6,7-dihydro-5H-pyrrolo[2,3-d]pyrimidin-4-ylamino)benzenesulfonamide], the IC50 [1] was < 100 nM and the IC50 [2] was < 200 nM.

COCCCNS(=O)(=O)c1ccccc1Nc1nc(Nc2ccc(N3CCOCC3)cc2OC)nc2c1CCN2 [Example 48, 2-(2-(2-methoxy-4-morpholinophenylamino)-6,7-dihydro-5H-pyrrolo[2,3-d]pyrimidin-4-ylamino)-N-(3-methoxypropyl)benzenesulfonamide] was tested, and the IC50 [1] was < 100 nM and the IC50 [2] was < 100 nM.
